Measured values taken from US8598209B2, “P2X3, receptor antagonists for treatment of pain” (Merck Sharp & Dohme Corp., priority 2008, dated 2013).
pIC50: −log10 of the molar value.

Biological target: T1, human P2X3 (Homo sapiens, UniProt P56373)
T1 construct: expressed in transfected cells
T1 sequence (P56373 1-397): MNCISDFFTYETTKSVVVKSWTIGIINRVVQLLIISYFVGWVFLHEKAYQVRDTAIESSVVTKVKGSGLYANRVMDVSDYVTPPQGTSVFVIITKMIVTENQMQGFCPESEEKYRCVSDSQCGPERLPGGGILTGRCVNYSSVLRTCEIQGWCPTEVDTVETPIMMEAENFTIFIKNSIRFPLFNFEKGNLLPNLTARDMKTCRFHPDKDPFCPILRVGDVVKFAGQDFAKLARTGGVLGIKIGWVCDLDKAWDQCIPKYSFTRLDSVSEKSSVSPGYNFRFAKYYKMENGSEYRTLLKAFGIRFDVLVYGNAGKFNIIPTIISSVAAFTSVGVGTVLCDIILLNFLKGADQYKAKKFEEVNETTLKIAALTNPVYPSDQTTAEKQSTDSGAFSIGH
Test: Intracellular Calcium Measurement to Assess Antagonist Affinity (FLIPR, Fluo-4), human P2X3 cells
Assay type: cell-based
Conditions: Intracellular Calcium Measurement to Assess Antagonist Affinity assay; agonist α,β-meATP at EC50
Source text: Generation of a Human P2X3 and P2X2/3 Stable Cell Line—
Human P2X3 receptor cDNA (Accession number NM_002559) was subcloned as a 5′XhoI and 3′HindIII fragment into the expression vector pcDNA5/FRT (Invitrogen). Human P2X2 receptor cDNA (Accession number NM_174873) was subcloned as a 5′EcoRI and 3′NotI fragment into the expression vector pIRESneo2 (BD Biosciences Clontech). The human P2X3 expression construct was transfected using Lipofectamine 2000 (Invitrogen) into Flp-in—293 cells (Invitrogen) according to the manufacturer's directions. Cells positive for flp-mediated recombination of […] P2X3 were selected using 150 μg/ml hygromycin. The stable human P2X3 cell line was co-transfected with the human P2X2 expression construct using Lipofectamine 2000 as above and co-transfected cells selected using […] hygromycin and 1 mg/ml G418. The stable P2X3 cell line was propagated in DMEM, 10% FBS, 100 μg/ml hygromycin, and 100 units/ml penicillin and 100 μg/ml streptomycin, and maintained at 37° and 95% humidity. The stable P2X2/3 cell line was propagated as above with the addition of 500 μg/ml G418.
Intracellular Calcium Measurement to Assess Antagonist Affinity—
A fluorescent imaging plate reader (FLIPR; Molecular Devices) was used to monitor intracellular calcium levels using the calcium-chelating dye Fluo-4 (Molecular Probes). The excitation and emission wavelengths used to monitor fluorescence were 488 nm and 530 nm, respectively. Cells expressing either human P2X3 or human P2X2/3 were plated at a density of 20,000 cells/well (20 μl/well) in 384-well black-walled plates approximately 20 hours before beginning the assay. On the day of the assay 20 μl of loading buffer (Hank's balanced salt solution, 2.5 mM CaCl2, 20 mM HEPES, 0.1% BSA, 2.5 mM probenecid, TR-40, Fluo-4, and 138 mM NMDG substituted for NaCl) is added and cells dye-loaded for 60 min in the dark at room temperature. Ten minutes prior to adding agonist, the antagonist was added in a volume of 10 μl and allowed to incubate at room temperature. During this period fluorescence data is collected at 3 sec intervals followed by 10 sec intervals. The agonist, α,β-meATP, is added at a 6× concentration ([α,β-meATP]final=EC50). Following agonist addition fluorescence was measured at 5 sec intervals and analyzed based on the increase in peak relative fluorescence units (RFU) compared to the basal fluorescence. Peak fluorescence was used to determine the inhibitory effect at each concentration of antagonist by the following equation: % Inhibition=100*(1−((RFU(drug)−RFU(control))/(RFU(DMSO only)−RFU(control)))) In vitro Electrophysiological Assay—

Point of comparison: `C[C@@H](NC(=O)c1cc(-c2ccc(F)cc2F)nc(C(C)(C)O)c1)c1ccc(C(F)(F)F)[n+]([O-])c1` [Example 1.62, 2-(2,4-Difluorophenyl)-6-(1-hydroxy-1-methylethyl)-N-{(1R)-1-[1-oxido-6-(trifluoromethyl)pyridin-3-yl]ethyl}isonicotinamide], pIC50 7.64. Against it:
- Cc1ccc(-c2cc(C(=O)N[C@@H](C)c3nnc[nH]3)nc(-c3ccc(C)cc3)n2)cc1 [Example 2.1] — 0.86 log units lower, 6.78
- Cc1ccc(-c2cc(C(=O)N[C@H](C)c3nc(C)no3)cnc2OC(C)C)cc1 [Example 3.22] — 0.26 log units lower, 7.38
- Cc1noc([C@@H](C)NC(=O)c2cc(-c3ccc(F)cc3)c(=O)n(C(C)C)c2)n1 [Example 5.61, 5-(4-fluorophenyl)-1-isopropyl-N-[(1R)-1-(3-methyl-1,2,4-oxadiazol-5-yl)ethyl]-6-oxo-1,6-dihydropyridine-3-carboxamide] — 0.32 log units lower, 7.32
